Experimental data as given in paper PMC8913318 (The Journal of Biological Chemistry, 2022).
“Also recorded” adds a separate entry of the source. Where two headings read alike, the source gives them in different places.

Key:
CYP168A1 [1] = biological target: T1, CYP168A1 (Pseudomonas aeruginosa, UniProt Q9I107); experiment: Ligand Kd determination by optical difference spectroscopy; assay type: binding; settings: for Δ absorbance maxima: 1 μM CYP168A1
T1 sequence (Q9I107 1-444): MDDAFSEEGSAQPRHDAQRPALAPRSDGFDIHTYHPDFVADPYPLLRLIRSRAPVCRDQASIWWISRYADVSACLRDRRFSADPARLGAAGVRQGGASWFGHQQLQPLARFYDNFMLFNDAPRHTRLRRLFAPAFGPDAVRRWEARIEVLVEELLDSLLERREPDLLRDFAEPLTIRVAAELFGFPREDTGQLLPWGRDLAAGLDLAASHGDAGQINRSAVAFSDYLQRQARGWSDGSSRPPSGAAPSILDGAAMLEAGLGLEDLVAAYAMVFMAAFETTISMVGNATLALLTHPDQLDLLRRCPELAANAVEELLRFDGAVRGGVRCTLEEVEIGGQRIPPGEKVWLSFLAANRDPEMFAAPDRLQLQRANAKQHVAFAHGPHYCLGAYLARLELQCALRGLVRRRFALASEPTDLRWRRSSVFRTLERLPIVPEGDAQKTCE

CYP168A1 [2] = biological target: T1, CYP168A1; settings: 19-HETE formation; substrate inhibition model
P. aeruginosa = settings: exposure of P. aeruginosa to arachidonic acid; cited from earlier work
CYP168A1 [3] = biological target: T1, CYP168A1; experiment: biochemical; settings: Ki ± SE, substrate inhibition constant
CYP168A1 [4] = biological target: T1, CYP168A1; experiment: Recombinant CYP168A1 lauric acid in vitro metabolic assays; assay type: biochemical
[5] = ND = no spectral shift detected
[6] = lauric acid ω-1-hydroxylation, Hill fit (preferred model)

| SMILES | Kd (CYP168A1 [1]) | Δ absorbance maxima (CYP168A1 [1]; [5]) | further results |
| --- | --- | --- | --- |
| CCCCC/C=C\C/C=C\C/C=C\C/C=C\CCCC(=O)O [Arachidonic acid] | 0.96 ± 0.07 µM | 0.058 AU | Vmax ± SE (CYP168A1 [2]): 220 pmol/min/nmol P450; increase in the minimum inhibitory concentration (MIC) for polymyxin B (P. aeruginosa): eightfold increase; Ki (CYP168A1 [3]; 18-HETE formation): 16 ± 8 µM; Ki (CYP168A1 [3]; 19-HETE formation): 13 ± 8 µM |
| Clc1ccccc1C(c1ccccc1)(c1ccccc1)n1ccnc1 [Clotrimazole] | 3 ± 0.4 µM | 0.053 AU |  |
| CCCCCCCCCC(=O)O [Decanoic acid] | 21 ± 4 µM | 0.016 AU |  |
| Clc1ccc(COC(Cn2ccnc2)c2ccc(Cl)cc2Cl)cc1 (stereo not shown) [Econazole] | 2.5 ± 0.4 µM | 0.026 AU |  |
| CCCCCCCCCCCC(=O)O [Lauric acid] |  | 0.013 AU | Kd (CYP168A1 [1]; read-out: Kd ± SE, 1 μM CYP168A1, 100 mM potassium phosphate pH 7.4, one binding site model, ND = no spectral shift detected): 1.9 ± 0.3 µM; proportion of lauric acid metabolized to the ω-hydroxyl derivative (CYP168A1 [4]; LC-MS analysis, spinach redox partners and NADPH): < 5%; n, cooperativity value for the substrate binding (CYP168A1 [4]; lauric acid ω-1-hydroxylation, Hill fit): 1.5; S50 ± SE (CYP168A1 [4]; [6]): 34 ± 2 µM; Vmax ± SE (CYP168A1 [4]; [6]): 0.12 ± 0.004 nmol/min/nmol P450; Vmax ± SE (CYP168A1 [4]; lauric acid ω-1-hydroxylation, Michaelis-Menten fit): 0.14 ± 0.006 nmol/min/nmol P450; Km (CYP168A1 [4]; read-out: Km ± SE, lauric acid ω-1-hydroxylation to 11-hydroxylauric acid, Michaelis-Menten fit): 46 ± 5 µM |
| Clc1ccc(COC(Cn2ccnc2)c2ccc(Cl)cc2Cl)c(Cl)c1 (stereo not shown) [Miconazole] | 0.88 ± 0.18 µM | 0.036 AU |  |
| CCCCCCCCCCCCCC(=O)O [Myristic acid] | 0.83 ± 0.15 µM | 0.048 AU |  |
| CCCCCCCC/C=C\CCCCCCCC(=O)O [Oleic acid] | 0.37 ± 0.07 µM | 0.099 AU |  |
| CCCCCCCCCCCCCCCC(=O)O [Palmitic acid] | 0.21 ± 0.04 µM | 0.064 AU |  |
| CCCCCCCCCCCCCCCCCC(=O)O [Stearic acid] | 0.33 ± 0.07 µM | 0.078 AU |  |
| CC(C)CCC[C@@H](C)[C@H]1CC[C@H]2[C@@H]3CC=C4C[C@@H](O)CC[C@]4(C)[C@H]3CC[C@]12C [cholesterol] |  |  | Spectral shift of the Soret band (difference spectrum type) (CYP168A1 [1]; UV-visible titration of CYP168A1): no spectral changes; also recorded: did not exert any changes |
